In one series the target is NDM-1 (Klebsiella pneumoniae, UniProt C7C422). Nature of the series: biochemical. Type of series: biochemical. The settings on record: CCF2-FA fluorescence assay, 2 hours at 25° C. The essentials:
(§1)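 In 100 mM phosphate pH 7 containing Tween-20 and ZnSO4, NDM-1 (1 pM), IMP-1 (2 pM) or VIM-1 (30 pM) hydrolysed 1.25 μM CCF2-FA over 2 hours at 25° C with inhibitor present. Readout was 405/460 nm fluorescence.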

For a further series, the target named is VIM-2 (Escherichia coli, UniProt Q5U7L7). Nature of the series: biochemical. The conditions noted are these: CCF2-FA fluorescence assay; read-out: VIM2 IC50.
Series [1] relates to Escherichia coli expressing NDM-1 (CLB30016). Type of series: cell-based. The conditions noted are these: with imipenem 1 μg/ml; 95% inhibition of bacterial growth. In short, it runs like this:
(§2)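 Read-out is absorbance after 22–24 h at 35 °C, with MITC95 taken as the lowest inhibitor concentration that, alongside imipenem at 1 μg/ml, suppresses 95% of bacterial growth. Inocula came from saline-suspended colonies diluted 1:100 into 1.1× CAMHB.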

Series [2] deals with Klebsiella pneumoniae expressing VIM-1 (IHMA599644). The class given is cell-based. The settings on record: with imipenem 1 μg/ml; 95% inhibition of bacterial growth. The essentials: as §2
Series [3] has as its system Serratia marcescens expressing IMP-1 (CL5741). The class given is cell-based. The settings on record: with imipenem 1 μg/ml; 95% inhibition of bacterial growth. In short, it runs like this:
as §2

Series [4] concerns P. aeruginosa MB9798 (efflux+, IMP-1 plasmid). The conditions noted are these: for MB9798 MITC95 P. aeruginosa uM Efflux WT: efflux + (MB9798) strain, imipenem at 2 μg/mL, in the presence of a class A, C, D serine β-lactamase inhibitor closely related to relebactam; for Efflux ratio: fold difference between efflux+ (MB9798) and efflux− (MB9799) strains. In short, it runs like this:
(§3)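 Isogenic P. aeruginosa PAO1 strains (efflux+ and multiple-efflux-pump-disrupted) carrying plasmid IMP-1, with inducible AmpC, tested by broth microdilution. Imipenem and/or ceftazidime fixed, usually at CLSI breakpoint, plus fixed class A/C β-lactamase inhibitor; titrated MBL inhibitor concentration restoring susceptibility recorded and compared between strains as efflux fold difference.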

Another series concerns the target VIM-1 (Pseudomonas aeruginosa (strain ATCC 15692 / DSM 22644 / CIP 104116 / JCM 14847 / LMG 12228 / 1C / PRS 101 / PAO1), UniProt A0A0F7KYQ8). Nature of the series: biochemical. The settings on record: CCF2-FA fluorescence assay, 2 hours at 25° C.; read-out: VIM1 IC50. The essentials:
as §1

The target of the next series is IMP-1 (Serratia marcescens, UniProt P52699). Kind of series: biochemical. The conditions noted are these: CCF2-FA fluorescence assay, 2 hours at 25° C.; read-out: IMP1 IC50. The essentials: as §1
For series [5], the system named is P. aeruginosa MB9799 (efflux-, IMP-1 plasmid). Type of series: cell-based, Pseudomonas aeruginosa. The conditions noted are these: efflux − (MB9799) strain; imipenem at 2 μg/mL; in the presence of a class A, C, D serine β-lactamase inhibitor closely related to relebactam. In short, it runs like this: as §3

These results are taken from patent publication US11207312B2, “Metallo-beta-lactamase inhibitors and methods of use thereof” (priority 2017, dated 2021).

NDM-1, sequence (C7C422 whole entry, looked up, species assumed): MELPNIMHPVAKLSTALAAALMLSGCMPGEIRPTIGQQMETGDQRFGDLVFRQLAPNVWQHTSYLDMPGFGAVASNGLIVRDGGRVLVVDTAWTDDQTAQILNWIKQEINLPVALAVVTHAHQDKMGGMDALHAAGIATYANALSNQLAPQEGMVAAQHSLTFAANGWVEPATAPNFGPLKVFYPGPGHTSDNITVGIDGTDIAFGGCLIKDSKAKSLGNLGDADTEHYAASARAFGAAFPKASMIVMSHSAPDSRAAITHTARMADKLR
IMP-1, sequence (P52699 whole entry, looked up, species assumed): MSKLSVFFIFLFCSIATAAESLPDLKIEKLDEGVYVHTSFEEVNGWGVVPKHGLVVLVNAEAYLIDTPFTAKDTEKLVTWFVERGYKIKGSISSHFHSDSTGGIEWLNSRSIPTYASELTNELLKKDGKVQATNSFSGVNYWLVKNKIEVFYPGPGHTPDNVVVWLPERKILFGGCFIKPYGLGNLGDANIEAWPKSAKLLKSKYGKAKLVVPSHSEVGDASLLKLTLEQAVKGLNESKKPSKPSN

By IC50 is commonly meant the point on the concentration scale where inhibition reaches its midpoint. Regarding `NS(=O)(=O)c1c(S(=O)(=O)N[C@@H]2CCNC2)ccc(N2CC[C@H](O)C2)c1-c1nnn[nH]1` [Example 97, 4-[(3S)-3-hydroxypyrrolidin-1-yl]-N1-[(3R)-pyrrolidin-3-yl]-3-(1H-tetrazol-5-yl)benzene-1,2-disulfonamide], the concentration for half-maximal inhibition (IC50) on NDM-1 came out at 6.21 nM; at VIM-2, 4.43 nM; at VIM-1 it was 2.49 nM; on IMP-1, 11.6 nM. In addition, in series [1], the “CLB30016 E. coli MITC95 NDM” value was determined as 3.13 µM. Also, in [2], the “IHMA599644 K. pneumoniae MITC95 VIM” value turned out to be 12.50 µM. Moreover, the “CL5741 S. marcescens MITC95 IMP” value in series [3] is 6.25 µM. Moreover, the “MB9798 MITC95 P. aeruginosa uM Efflux WT” value in [4] was determined as 6.25 µM. For the same molecule, the Efflux ratio in [4] was 2.00. The “MB9799 MITC95 P. aeruginosa uM Efflux Mutant” value in [5] is 3.13 µM.
As for `NS(=O)(=O)c1c(S(=O)(=O)N[C@@H]2CCNC2)ccc(N2CCC(CCO)CC2)c1-c1nnn[nH]1` [Example 98, 4-[4-(2-hydroxyethyl)piperidin-1-yl]-N1-[(3R)-pyrrolidin-3-yl]-3-(1H-tetrazol-5-yl)benzene-1,2-disulfonamide], the IC50 came out at 0.08 nM on NDM-1, 0.59 nM on VIM-2, 0.15 nM on VIM-1 and 0.13 nM at IMP-1. In series [1], the “CLB30016 E. coli MITC95 NDM” value was 12.50 µM. Besides, in series [2], the “IHMA599644 K. pneumoniae MITC95 VIM” value came to 12.50 µM. In series [3], the “CL5741 S. marcescens MITC95 IMP” value is 6.25 µM. The “MB9798 MITC95 P. aeruginosa uM Efflux WT” value in series [4] came to 3.13 µM. Moreover, the Efflux ratio in series [4] came to 1.00. Moreover, the “MB9799 MITC95 P. aeruginosa uM Efflux Mutant” value in series [5] stood at 3.13 µM.
Consider `NS(=O)(=O)c1c(S(=O)(=O)N[C@@H]2CCNC2)ccc(N2CC[C@@H](O)C2)c1-c1nnn[nH]1` [Example 99, 4-[(3R)-3-hydroxypyrrolidin-1-yl]-N1-[(3R)-pyrrolidin-3-yl]-3-(1H-tetrazol-5-yl)benzene-1,2-disulfonamide], for which the IC50 amounted to 0.92 nM at NDM-1, 3.22 nM at VIM-2, 2.66 nM on VIM-1 and 1.33 nM at IMP-1. Besides, the “CLB30016 E. coli MITC95 NDM” value in [1] came to 1.56 µM. Moreover, in [2], the “IHMA599644 K. pneumoniae MITC95 VIM” value turned out to be 6.25 µM. In addition, in [3], the “CL5741 S. marcescens MITC95 IMP” value is 3.13 µM. Further, the “MB9798 MITC95 P. aeruginosa uM Efflux WT” value in series [4] was found to be 3.13 µM. Also, the Efflux ratio in series [4] is 1.00. Besides, the “MB9799 MITC95 P. aeruginosa uM Efflux Mutant” value in [5] worked out at 3.13 µM.
With `CN(C)CC1(O)CCN(c2ccc(S(=O)(=O)N[C@@H]3CCNC3)c(S(N)(=O)=O)c2-c2nnn[nH]2)CC1` [Example 100, 4-{4-[(dimethylamino)methyl]-4-hydroxypiperidin-1-yl}-N1-[(3R)-pyrrolidin-3-yl]-3-(1H-tetrazol-5-yl)benzene-1,2-disulfonamide], the IC50 is 17.5 nM against NDM-1, 162 nM at VIM-2, 12.4 nM on VIM-1 and 37 nM on IMP-1. The “CLB30016 E. coli MITC95 NDM” value in [1] was found to be 12.50 µM. Moreover, the “IHMA599644 K. pneumoniae MITC95 VIM” value in series [2] was found to be 12.50 µM. Besides, the “CL5741 S. marcescens MITC95 IMP” value in series [3] was 6.25 µM. Further, the “MB9798 MITC95 P. aeruginosa uM Efflux WT” value in [4] turned out to be 12.50 µM. Also, the Efflux ratio in [4] is given as 2.00. In addition, the “MB9799 MITC95 P. aeruginosa uM Efflux Mutant” value in series [5] was 6.25 µM.
For the molecule `NS(=O)(=O)c1c(S(=O)(=O)N[C@@H]2CCNC2)ccc(N2CCC(CO)CC2)c1-c1nnn[nH]1` [Example 101, 4-[4-(hydroxymethyl)piperidin-1-yl]-N1-[(3R)-pyrrolidin-3-yl]-3-(1H-tetrazol-5-yl)benzene-1,2-disulfonamide], the IC50 against NDM-1 was 0.08 nM; at VIM-2 it was 0.39 nM; on VIM-1, 0.09 nM; on IMP-1, 0.16 nM. The “CLB30016 E. coli MITC95 NDM” value in [1] turned out to be 0.78 µM. In [2], the “IHMA599644 K. pneumoniae MITC95 VIM” value is 3.13 µM. Further, in series [3], the “CL5741 S. marcescens MITC95 IMP” value is 1.56 µM. The “MB9798 MITC95 P. aeruginosa uM Efflux WT” value in [4] came out at 1.56 µM. For the same molecule, in series [4], the Efflux ratio is given as 2.00. Besides, the “MB9799 MITC95 P. aeruginosa uM Efflux Mutant” value in [5] was 0.78 µM.
`NS(=O)(=O)c1c(S(=O)(=O)N[C@@H]2CCNC2)ccc(N2CCN(CCO)CC2)c1-c1nnn[nH]1` [Example 102, 4-[4-(2-hydroxyethyl)piperazin-1-yl]-N1-[(3R)-pyrrolidin-3-yl]-3-(1H-tetrazol-5-yl)benzene-1,2-disulfonamide]: the IC50 against NDM-1 came out at 1.35 nM; on VIM-2, 7.94 nM; on VIM-1, 3.06 nM; at IMP-1 it was 2.07 nM. For the same molecule, in series [1], the “CLB30016 E. coli MITC95 NDM” value was 0.20 µM. The “IHMA599644 K. pneumoniae MITC95 VIM” value in [2] turned out to be 3.13 µM. The “CL5741 S. marcescens MITC95 IMP” value in series [3] is 0.20 µM. The “MB9798 MITC95 P. aeruginosa uM Efflux WT” value in series [4] was 3.13 µM. Moreover, the Efflux ratio in series [4] was 2.00. For the same molecule, in series [5], the “MB9799 MITC95 P. aeruginosa uM Efflux Mutant” value is 1.56 µM.
For `NS(=O)(=O)c1c(S(=O)(=O)N[C@@H]2CCNC2)ccc(N2CCOC(CO)C2)c1-c1nnn[nH]1` (stereo partly drawn) [Example 103, 4-[2-(hydroxymethyl)morpholin-4-yl]-N1-[(3R)-pyrrolidin-3-yl]-3-(1H-tetrazol-5-yl)benzene-1,2-disulfonamide], the IC50 against NDM-1 was determined as 0.68 nM; at VIM-2, 0.59 nM; on VIM-1 it was 0.42 nM; at IMP-1, 3.46 nM. The “CLB30016 E. coli MITC95 NDM” value in [1] is 3.13 µM. For the same molecule, the “IHMA599644 K. pneumoniae MITC95 VIM” value in series [2] was determined as 6.25 µM. In [3], the “CL5741 S. marcescens MITC95 IMP” value was 3.13 µM. Also, the “MB9798 MITC95 P. aeruginosa uM Efflux WT” value in series [4] was determined as 3.13 µM. In [4], the Efflux ratio is listed as 2.00. Moreover, in series [5], the “MB9799 MITC95 P. aeruginosa uM Efflux Mutant” value stood at 1.56 µM.
`NS(=O)(=O)c1c(S(=O)(=O)N[C@@H]2CCNC2)ccc(N2CCCCC(O)C2)c1-c1nnn[nH]1` (stereo partly drawn) [Example 104, 4-(3-hydroxyazepan-1-yl)-N1-[(3R)-pyrrolidin-3-yl]-3-(1H-tetrazol-5-yl)benzene-1,2-disulfonamide]: the IC50 against NDM-1 was determined as 0.68 nM; at VIM-2 it was 0.65 nM; on VIM-1 it was 0.21 nM; at IMP-1, 2.06 nM. Besides, the “CLB30016 E. coli MITC95 NDM” value in [1] came to 3.13 µM. Moreover, the “IHMA599644 K. pneumoniae MITC95 VIM” value in series [2] was 3.13 µM. In addition, the “CL5741 S. marcescens MITC95 IMP” value in [3] was determined as 3.13 µM. Moreover, in [4], the “MB9798 MITC95 P. aeruginosa uM Efflux WT” value is 3.13 µM. Besides, the Efflux ratio in series [4] was found to be 2.00. Also, the “MB9799 MITC95 P. aeruginosa uM Efflux Mutant” value in series [5] turned out to be 1.56 µM.
Consider `NS(=O)(=O)c1c(S(=O)(=O)N[C@@H]2CCNC2)ccc(N2CCOC(CCO)C2)c1-c1nnn[nH]1` (stereo partly drawn) [Example 105, 4-[2-(2-hydroxyethyl)morpholin-4-yl]-N1-[(3R)-pyrrolidin-3-yl]-3-(1H-tetrazol-5-yl)benzene-1,2-disulfonamide], for which the IC50 against NDM-1 came out at 0.25 nM; on VIM-2 it was 1.79 nM; at VIM-1 it was 0.96 nM; at IMP-1, 1.16 nM. The “CLB30016 E. coli MITC95 NDM” value in [1] was determined as 6.25 µM. Moreover, the “IHMA599644 K. pneumoniae MITC95 VIM” value in series [2] came out at 12.50 µM. The “CL5741 S. marcescens MITC95 IMP” value in [3] was found to be 6.25 µM. For the same molecule, the “MB9798 MITC95 P. aeruginosa uM Efflux WT” value in [4] is 12.50 µM. For the same molecule, in [4], the Efflux ratio is 2.00. Besides, the “MB9799 MITC95 P. aeruginosa uM Efflux Mutant” value in [5] came out at 6.25 µM.
